Measurements taken from PubChem BioAssay (NCI).
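Interpolation was linear, between the two tested concentrations surrounding the appropriate level; five concentrations were tested over 48 hours in 96-well plates. Definition used: TGI = concentration required for complete inhibition of growth.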

Key:
Experiment in all cases: growth of human tumour cells (NCI), 48 h
SNB-19 CNS = system: SNB-19 CNS
SK-OV-3 ovarian = system: SK-OV-3 ovarian
SF-539 CNS = system: SF-539 CNS
OVCAR-8 ovarian = system: OVCAR-8 ovarian
A549 NSCLC = system: A549 NSCLC
OVCAR-5 ovarian = system: OVCAR-5 ovarian
SF-295 CNS = system: SF-295 CNS
HOP-62 NSCLC = system: HOP-62 NSCLC
MALME-3M melanoma = system: MALME-3M melanoma
HS 578T breast = system: HS 578T breast
786-0 renal = system: 786-0 renal
HOP-92 NSCLC = system: HOP-92 NSCLC
KM12 colon = system: KM12 colon
HCT-15 colon = system: HCT-15 colon
NCI/ADR-RES ovarian = system: NCI/ADR-RES ovarian
OVCAR-3 ovarian = system: OVCAR-3 ovarian
BT-549 breast = system: BT-549 breast
PC-3 prostate = system: PC-3 prostate

Structure (SMILES) | TGI (SNB-19 CNS) [µM] | TGI (SK-OV-3 ovarian) [µM] | TGI (SF-539 CNS) [µM] | TGI (OVCAR-8 ovarian) [µM] | TGI (A549 NSCLC) [µM] | TGI (OVCAR-5 ovarian) [µM] | TGI (SF-295 CNS) [µM] | TGI (HOP-62 NSCLC) [µM] | TGI (MALME-3M melanoma) [µM] | TGI (HS 578T breast) [µM] | TGI (786-0 renal) [µM] | TGI (HOP-92 NSCLC) [µM] | TGI (KM12 colon) [µM] | TGI (HCT-15 colon) [µM] | TGI (NCI/ADR-RES ovarian) [µM] | TGI (OVCAR-3 ovarian) [µM] | TGI (BT-549 breast) [µM] | TGI (PC-3 prostate) [µM]
c1ccc(NC2(c3nnnn3C3CCCCC3)CCNCC2)cc1 | 42.5 | 83.4 | 30 | 81.9 | > 100 | 43.4 | 34.6 | 31.9 | 32.4 | 32.2 | 28.6 | 32.3 | 31.3 | 51.6 | > 100 |  |  | 
CCOC(=O)c1c(C)n(-c2ccc(C)cc2)c2c1cc(O)c1[nH]c3c(c12)CCCC3 | 67.5 | > 100 | 30.2 | 82.3 | > 100 | > 100 | 65.2 | > 100 | 37 |  | 37.1 | 23.6 | 51.5 | > 100 | > 100 | 51.1 | 26.2 | 52.3
c1ccc2c(c1)SCCCSCCCS2 | > 100 | > 100 | > 100 | > 100 | > 100 | > 100 | > 100 | > 100 |  |  | > 100 | > 100 | > 100 | > 100 | > 100 | > 100 | > 100 | > 100
C=C1C(=O)OC2C3C(=C)[C@@H](OC(C)=O)CC3C(C)=CC(OC(=O)C(C)(O)C(C)OC(C)=O)[C@@H]12 (stereo not given in full) | > 100 | > 100 | 31.9 | 37.9 | 77.8 | 24.9 | > 100 | 46.6 | 20.2 | 40.9 | 24.2 |  | 28.5 | 22 |  | 21.8 | 26.7 | 30.7
O=C(O)C1CCCCN1CCc1c[nH]c2ccccc12 (stereo not given) | > 100 | > 100 | > 100 | > 100 | > 100 | > 100 | > 100 | > 100 | > 100 |  | > 100 | > 100 | > 100 | > 100 | > 100 | > 100 | > 100 | > 100
Brc1ccc(C2(N3CCCCC3)CCCCC2)s1 | > 100 | > 100 |  |  | > 100 | > 100 | > 100 | > 100 | 94 | > 100 | > 100 | 51.2 | > 100 |  |  | > 100 | > 100 | > 100
O=C1NCC2=C1CCC1c3ccccc3CCN21 (stereo not given) | > 100 | > 100 | > 100 | > 100 | > 100 | > 100 | > 100 |  | > 100 |  | > 100 | > 100 | > 100 | > 100 |  | > 100 |  | 
COC(=O)[C@H]1[C@H](OC(=O)[C@@H](OC)c2ccccc2)ON2CC[C@@H](OC(=O)c3ccccc3)[C@H]12 | > 100 | > 100 |  | > 100 | > 100 | > 100 | > 100 | > 100 | > 100 | > 100 | > 100 | 66 | > 100 | > 100 | > 100 |  |  | > 100
COc1ccc2c(c1)CC[C@@H]1C2CC[C@]2(C)C(=O)N(C)C(=O)CC12 (stereo not given in full) | > 100 | > 100 | > 100 | > 100 | > 100 | > 100 | > 100 | > 100 | > 100 | > 100 | > 100 | > 100 | > 100 |  |  | > 100 | > 100 | > 100
COc1cc(O)c2c(=O)cc(C3(OC(C)=O)C=CC(OC4OC(CO)C(O)C(O)C4O)C=C3)oc2c1 (stereo not given) | > 100 | > 100 | > 100 | > 100 | > 100 | > 100 | > 100 | > 100 | > 100 |  | > 100 | > 100 | > 100 | > 100 | > 100 | > 100 | > 100 | > 100
O=C(N/N=C1\CCc2ccccc21)N/N=C1\CCc2ccccc21 | > 100 | > 100 | > 100 | > 100 | > 100 | > 100 | > 100 | > 100 | > 100 | > 100 | > 100 |  | > 100 | > 100 | > 100 | > 100 | > 100 | > 100
Cc1ccc2c(c1)C(=O)c1ccc(C)nc1C2=O | 63.6 | > 100 | 68.5 | > 100 | > 100 | > 100 | > 100 | > 100 | 52.5 | > 100 | > 100 |  | > 100 | 39 | 67.3 | > 100 | 92.8 | > 100
CSC(=S)Nc1cc(C)ccn1 | > 100 | > 100 | > 100 | > 100 | > 100 | > 100 | > 100 | > 100 | > 100 | > 100 | > 100 | > 100 | > 100 | > 100 | > 100 | > 100 |  | > 100
COc1ccc(OC)c(CC(=O)c2ccc(O)c(C(=O)NCCc3ccc(F)cc3)c2)c1 | 52.5 | 9.96 |  | 21.8 | 37.6 | > 100 | 10.1 | 5.63 | 6.9 | 8.69 | 24.5 | 41.4 | 13.9 | 17.1 | 8.79 | 3.17 | 38.5 | 
N#Cc1c(-c2ccccc2)cc(Nc2ccc(F)cc2)n2c1nc1ccccc12 | > 100 | 8.71 | > 22.7 | > 32.7 | > 100 | > 29.2 | > 29.6 | 40.8 | > 28.4 | 4.68 | 10 |  | > 100 | > 30.4 | 13 | 19.3 | > 25.2 | 4.97
COc1ccc(-n2c(-c3ccccc3)cc(-c3cccs3)c2-c2cccs2)cc1 |  | > 100 | > 100 | > 100 | > 100 | > 100 | > 100 | > 100 |  | > 100 | > 100 | > 100 | > 100 | > 100 | > 100 | > 100 |  | 
O=C1C2=Cc3ccccc3CCN2c2ccc([N+](=O)[O-])cc21 | > 100 |  | > 100 | > 100 | > 100 | > 100 | > 100 | > 100 | > 100 | > 100 | > 100 | > 100 | > 100 | > 100 | > 100 | > 100 |  | > 100
COC(=O)C1CCCCCCCCCCC12SCCCS2 (stereo not given) | 83.2 | > 100 | 47.4 | 48.8 | 36.7 | 34.7 | 39 | 41.2 | 37.6 | 90.5 | 28.5 | 39.9 | 36 | > 100 | 43.1 | 41 |  | 50
C[C@H]1ON2CCC[C@@H]2[C@@H]1C(=O)N1C2CC3CCC2(CS1(=O)=O)C3(C)C (stereo not given in full) | > 100 | > 100 | > 100 | > 100 | > 100 | > 100 | > 100 | > 100 | > 100 | > 100 | > 100 |  | > 100 | > 100 | > 100 | > 100 |  | > 100
CC(=O)/C(=C\n1c(=S)[nH]c2ccc([N+](=O)[O-])cc21)C(=O)Nc1ccccc1C |  | > 100 | > 100 | > 100 | > 100 | > 100 | > 100 | > 100 | > 100 |  | > 100 |  |  | > 100 | > 100 | > 100 | > 100 | > 100
COC(=O)/C=C(\S/C(=C(/c1ccccc1)n1cc(C(=O)OC)c(C(=O)OC)n1)c1ccccc1)C(=O)OC | 40 | > 100 | 32.4 | 3.88 | 62.6 | 32.7 | > 100 | 31 | 31.9 | 96.3 | > 100 |  | > 100 | 29 | 89.1 | 8.29 | 98.7 | 32.2
CCOC(=O)C(NC(=O)Nc1ccccc1F)(OC)C(F)(F)F (stereo not given) | > 100 | > 100 | > 100 | > 100 | > 100 | > 100 |  |  |  | > 100 | > 100 |  |  | > 100 | > 100 |  | > 100 | > 100
NC1=NC(=O)[C@H](CSCc2ccccc2)N1C(=O)OCc1ccccc1 | > 100 |  |  | > 100 |  | > 100 | > 100 | > 100 | > 100 | > 100 | > 100 |  | > 100 | > 100 | > 100 | > 100 | > 100 | > 100
CCOP(=O)(OCC)OC1CC(n2cnc3c(N(CC)CC)ncnc32)OC1CO[Si](C)(C)C(C)(C)C (stereo not given) | 33.7 | 31.6 | 33.8 | 56.4 | 29.8 | 37.1 | 31 | 34 | 41.4 | 77.1 | 30 |  | 38.6 | 45 | 51.8 | 44.9 | 29.7 | 28.5
Nc1nc(SCC(=O)c2ccccc2)nc2nc3c(c(-c4ccccc4)c12)CCCC3 | > 100 | 76.8 | > 100 | 89 | > 100 | > 100 |  | > 100 | > 100 | 64 | 56.1 |  | > 100 | > 100 | > 100 | 94.5 | > 100 | 
CC(=O)Nc1ccccc1S(=O)(=O)c1c(-c2c(C)c(Cl)c(C)c(Cl)c2C)noc1C | 64.5 | > 100 |  | > 100 | > 100 | > 100 | > 100 | 50 | > 100 | 73.7 | 40.6 |  | > 100 | > 100 | > 100 | > 100 | > 100 | > 100
Cc1oc2nc(N(C)C)n3c(C)nnc3c2c1C | > 100 | > 100 | > 100 | > 100 | > 100 | > 100 | > 100 |  |  | > 100 | > 100 | > 100 | > 100 | > 100 | > 100 |  | > 100 | 
CCCNc1c(Cl)cc(Cl)c2[nH]c3ccccc3c(=O)c12 | 65.7 | > 100 | > 100 | > 100 | > 100 | > 100 | > 100 | > 100 | 75.3 |  | > 100 | 35 | > 100 | > 100 | > 100 | > 100 | > 100 | > 100
COc1ccc2c(c1)OCC1Cc3cccc(OC)c3OC21 (stereo not given) |  | > 100 | > 100 | > 100 | > 100 | > 100 | > 100 | > 100 | > 100 |  | > 100 | > 100 | > 100 | > 100 | > 100 | > 100 | 80 | > 100
